Values of other authors, collected in patent US10010703B2, “Drug device configured for wireless communication” (POP TEST ABUSE DETERRENT TECHNOLOGY LLC, priority 2014, dated 2018).

Columns and labels:
estrogen receptor = molecular target: T1, estrogen receptor (Homo sapiens, UniProt P03372)
T1 sequence (P03372 1-595): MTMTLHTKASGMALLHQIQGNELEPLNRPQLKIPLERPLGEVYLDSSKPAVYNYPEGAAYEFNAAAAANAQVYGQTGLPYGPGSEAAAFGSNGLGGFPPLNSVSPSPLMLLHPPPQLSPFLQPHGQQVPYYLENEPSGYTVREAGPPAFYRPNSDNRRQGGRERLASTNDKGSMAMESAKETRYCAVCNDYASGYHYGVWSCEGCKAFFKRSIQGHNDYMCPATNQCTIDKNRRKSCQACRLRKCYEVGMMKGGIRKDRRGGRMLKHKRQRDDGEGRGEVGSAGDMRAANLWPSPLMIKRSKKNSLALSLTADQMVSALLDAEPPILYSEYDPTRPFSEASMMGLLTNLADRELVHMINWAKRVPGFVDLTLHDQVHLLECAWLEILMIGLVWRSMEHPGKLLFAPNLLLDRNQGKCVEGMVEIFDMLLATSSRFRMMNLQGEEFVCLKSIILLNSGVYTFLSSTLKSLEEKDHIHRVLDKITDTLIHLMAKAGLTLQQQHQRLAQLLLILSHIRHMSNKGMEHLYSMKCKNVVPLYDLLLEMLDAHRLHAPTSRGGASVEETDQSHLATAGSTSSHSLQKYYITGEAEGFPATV

progesterone receptor = molecular target: T2, progesterone receptor (Homo sapiens, UniProt P06401)
T2 sequence (P06401 1-933): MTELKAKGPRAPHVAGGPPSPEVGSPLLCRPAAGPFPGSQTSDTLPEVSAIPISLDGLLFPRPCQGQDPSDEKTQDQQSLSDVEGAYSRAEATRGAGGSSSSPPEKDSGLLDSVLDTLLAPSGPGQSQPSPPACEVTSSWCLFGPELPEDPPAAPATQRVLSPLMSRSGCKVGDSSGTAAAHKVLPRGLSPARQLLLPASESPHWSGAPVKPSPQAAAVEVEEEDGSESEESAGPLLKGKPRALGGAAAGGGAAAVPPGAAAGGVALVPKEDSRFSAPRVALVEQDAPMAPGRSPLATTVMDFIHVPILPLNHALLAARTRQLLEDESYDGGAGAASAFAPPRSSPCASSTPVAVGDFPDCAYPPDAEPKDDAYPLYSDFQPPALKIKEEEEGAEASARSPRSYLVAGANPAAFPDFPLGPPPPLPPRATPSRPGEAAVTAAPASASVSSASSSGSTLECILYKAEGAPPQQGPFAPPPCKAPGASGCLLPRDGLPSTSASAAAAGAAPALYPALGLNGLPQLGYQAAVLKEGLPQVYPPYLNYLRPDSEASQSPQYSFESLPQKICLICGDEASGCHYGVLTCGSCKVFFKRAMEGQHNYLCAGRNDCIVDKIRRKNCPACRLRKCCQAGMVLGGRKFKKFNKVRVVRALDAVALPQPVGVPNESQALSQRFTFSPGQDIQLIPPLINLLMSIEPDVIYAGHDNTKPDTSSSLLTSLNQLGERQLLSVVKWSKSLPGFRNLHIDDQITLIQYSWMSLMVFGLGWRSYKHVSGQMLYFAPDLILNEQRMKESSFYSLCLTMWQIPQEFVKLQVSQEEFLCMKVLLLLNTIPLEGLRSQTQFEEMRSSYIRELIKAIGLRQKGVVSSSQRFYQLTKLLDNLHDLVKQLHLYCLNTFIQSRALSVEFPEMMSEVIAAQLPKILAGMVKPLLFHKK

glucocorticoid receptor = molecular target: T3, glucocorticoid receptor (Homo sapiens, UniProt P04150)
T3 sequence (P04150 1-777): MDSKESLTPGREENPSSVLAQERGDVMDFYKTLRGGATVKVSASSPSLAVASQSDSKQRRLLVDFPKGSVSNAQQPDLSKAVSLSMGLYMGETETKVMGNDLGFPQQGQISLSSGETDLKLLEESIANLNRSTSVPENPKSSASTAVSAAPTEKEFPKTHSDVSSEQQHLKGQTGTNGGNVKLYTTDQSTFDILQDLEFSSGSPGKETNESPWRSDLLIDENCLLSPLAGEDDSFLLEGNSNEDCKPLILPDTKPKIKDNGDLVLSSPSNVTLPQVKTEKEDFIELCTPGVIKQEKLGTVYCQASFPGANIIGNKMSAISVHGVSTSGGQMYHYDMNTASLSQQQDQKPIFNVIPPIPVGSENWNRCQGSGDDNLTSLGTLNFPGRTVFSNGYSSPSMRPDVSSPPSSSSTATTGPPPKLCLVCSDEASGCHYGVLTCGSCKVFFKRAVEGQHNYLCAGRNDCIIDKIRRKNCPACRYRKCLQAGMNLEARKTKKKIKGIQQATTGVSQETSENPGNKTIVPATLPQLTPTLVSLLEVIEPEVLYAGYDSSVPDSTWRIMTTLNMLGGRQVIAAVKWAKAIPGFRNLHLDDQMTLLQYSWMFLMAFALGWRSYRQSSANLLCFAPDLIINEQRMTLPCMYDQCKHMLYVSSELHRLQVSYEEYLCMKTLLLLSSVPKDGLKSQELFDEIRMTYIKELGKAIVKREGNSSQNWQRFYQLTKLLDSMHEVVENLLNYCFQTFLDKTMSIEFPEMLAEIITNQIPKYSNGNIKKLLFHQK

[1] = phase I and phase II clinical trials

affinity for / cross-binding to estrogen receptor (estrogen receptor): without significant cross-binding
affinity for / cross-binding to progesterone receptor (progesterone receptor): without significant cross-binding
glucocorticoid receptor binding affinity (glucocorticoid receptor): high
SMILES: CC#C[C@]1(O)CC[C@H]2[C@@H]3CCC4=CC(=O)CCC4=C3[C@@H](c3ccc4c(c3)OCO4)C[C@@]21C [ORG 34517, (11β,17β)-11-(1,3-benzodioxol-5-yl)-17-hydroxy-17-(1-propynyl) estra-4,9-dien-3-one]
significant toxicities and side effects [1]: none were identified
